Laboratory results from article PMC6721227, “Insight into the PTP1B Inhibitory Activity of Arylbenzofurans: An In Vitro and In Silico Study” (Molecules, 2019).
“Also recorded” adds a separate entry of the source.

What was measured:
[1] = system: PTP1B; set-up: method as in PMID 15258570; details: allosteric inhibitor of PTP1B; cited from earlier work
[2] = molecular target: T1, Protein tyrosine phosphatase 1B (PTP1B, human recombinant) (Homo sapiens, UniProt P18031); test: Enzyme kinetic analysis (Lineweaver-Burk and Dixon plots); format: biochemical; details: for Ki: determined by Dixon plot; for Inhibition Type: determined by Lineweaver-Burk plot
T1 construct: purchased Biomol International LP (Plymouth Meeting, PA, USA)
T1 sequence (P18031 1-435): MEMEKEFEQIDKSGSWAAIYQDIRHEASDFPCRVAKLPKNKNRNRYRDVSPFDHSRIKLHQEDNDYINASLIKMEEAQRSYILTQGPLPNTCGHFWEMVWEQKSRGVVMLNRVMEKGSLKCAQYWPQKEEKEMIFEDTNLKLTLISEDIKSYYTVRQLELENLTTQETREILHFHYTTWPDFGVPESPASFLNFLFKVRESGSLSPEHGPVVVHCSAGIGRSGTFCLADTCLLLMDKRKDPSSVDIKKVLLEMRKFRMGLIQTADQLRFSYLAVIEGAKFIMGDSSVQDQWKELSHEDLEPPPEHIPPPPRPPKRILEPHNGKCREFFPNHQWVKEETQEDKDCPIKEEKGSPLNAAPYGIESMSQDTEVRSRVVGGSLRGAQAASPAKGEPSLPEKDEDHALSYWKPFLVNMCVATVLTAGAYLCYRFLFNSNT
Description: Here, we employed Lineweaver-Burk and Dixon plots to determine the inhibition type and inhibition constant (Ki value) for each compound (Figure 2, Table 1).
(§1) Ethylenediaminetetraacetic acid, p-nitrophenyl phosphate (pNPP), and dimethylsulfoxide were purchased from Sigma-Aldrich Co. (St. Louis, MO, USA). Protein tyrosine phosphatase 1B (PTP1B, human recombinant) and dithiothreitol (DTT) were purchased from Biomol® International LP (Plymouth Meeting, PA, USA) and Bio-Rad Laboratories (Hercules, CA, USA), respectively. All chemicals and solvents used in the isolation and enzyme assays were of reagent grade and were purchased from commercial sources. TLC were performed on a precoated Merck Kiesel gel 60 F254 plates (20 × 20 cm, 0.25 mm) and RP-18 F254S plates (5 × 10 cm) (Merck, Darmstadt, Germany).
The kinetic parameters were determined using Lineweaver-Burk double-reciprocal plots and the Dixon plot method at increasing substrate and compound concentrations. All measurements were measured in triplicate, and Sigma Plot 12.0 (SPCC Inc., Chicago, IL, USA) was used to calculate the experimental parameters.

[3] = molecular target: T1, Protein tyrosine phosphatase 1B (PTP1B, human recombinant); test: PTP1B inhibitory assay (inhibition of pNPP hydrolysis catalyzed by PTP1B); format: biochemical
Description: as §1
Inhibition of pNPP hydrolysis catalyzed by PTP1B was carried out by the method as described but with slight modification.

Compound | IC50 [1] | Ki [2] | Inhibition Type [2] | IC50 [3] | times more potent than compound A ([3]; MD2 vs compound A, PTP1B inhibition) | reduction of activity (SA vs. MD) ([3]; replacement of C3′-OH with -OCH3, SA vs. MD)
CC(C)=CCC/C(C)=C/CC/C(C)=C\Cc1c(O)cc(O)c(CC=C(C)C)c1-c1cc2ccc(O)cc2o1 [MB, morusalfuran B] |  | 2.84 µM | mixed-type inhibition; also recorded: mixed type inhibitor | 12 ± 0.75 µM |  | 
CC(C)=CCCC1(C)C=Cc2c(ccc3cc(-c4cc(O)cc(O)c4CC=C(C)C)oc23)O1 (centres unmarked) [MD2, mulberrofuran D2] |  | 2.63 µM | non-competitive inhibition; also recorded: non-competitive inhibitor; also recorded: Noncompetitive | 3.11 ± 0.1 µM | 7 times | 
CC(C)=CCC/C(C)=C/Cc1c(O)ccc2cc(-c3cc(O)cc(O)c3CC=C(C)C)oc12 [MD, mulberrofuran D] |  | 4.79 µM | mixed-type inhibition; also recorded: mixed type inhibitor | 11.6 ± 0.19 µM |  | 
C[C@@]12C=C(c3c(O)cc(-c4cc5ccc(O)cc5o4)cc3O)C[C@@H](C1)c1ccc(O)cc1O2 [MH, mulberrofuran H] |  |  |  | 53.5 ± 12.5 µM |  | 
COc1cc(O)cc(-c2cc3ccc(O)c(C/C=C(\C)CCC=C(C)C)c3o2)c1CC=C(C)C [SA, sanggenofuran A] |  |  |  | 31.9 ± 2.98 µM |  | > 3 times
